We go through 5 molecules from ChEMBL document CHEMBL4819116, “Design, synthesis, and biological evaluation of stapled ascaphin-8 peptides” (Bioorg Med Chem, 2021).

Where a SMILES comes first, the peptide text is derived from it. Bridges are numbered along the chain shown (N, C = ends). [ ]: non-standard residue; d: D form. S8 = C=CCCCCCC[C@](C)(N)C(=O)O; S5 = C=CCCC[C@](C)(N)C(=O)O

A short description of data set [1]: Helicity of the compound in TFE aqueous solution by CD spectroscopy. It counts as physicochemical. Conditions: buffer.
Data set [2] deals with T1, trypsin (Homo sapiens, UniProt P07477+P07478+P35030). The data set can be described thus: Stability of the compound assessed as trypsin (unknown origin)-mediated degradation by measuring half life using pH 7.4 PBS buffer by HPLC analysis. The format is ADME, protein assay. Conditions: trypsin in PBS buffer.
In data set [3] the test system is A549. Kind of data set: Cytotoxicity against human A549 cells assessed as reduction in cell viability measured after 96 hrs b y CCK-8 assay. It counts as functional, cell-based. Conditions: A549, 96 h. For orientation: Tetrazolium assays rely on reduction of a dye to a coloured formazan, in cell work by metabolically active cells.
In data set [4] the test system is LNCaP C4-2B. Kind of data set: Cytotoxicity against human LNCaP C4-2B cells assessed as reduction in cell viability measured after 96 hrs b y CCK-8 assay. The format is functional, cell-based.
The test system of data set [5] is HEK-293T. Kind of data set: Cytotoxicity against human HEK293T cells assessed as reduction in cell viability measured after 96 hrs b y CCK-8 assay. The format is cell-based.
Data set [6] concerns A549. The data set can be described thus: Inhibition of colony formation in human A549 cells measured after 14 days by crystal violet staining based light microscopy. The format is functional, cell-based. The following applies: dose 0-4 µM, time 14.0 day.
Data set [7] concerns A549. The data set can be described thus: Antimigratory activity against human A549 cells assessed as inhibition of cell migration measured for 24 hrs by crystal violet staining - light microscopy based transwell migration assay. It counts as functional. The following applies: dose 0-4 µM.
A short description of data set [8]: Hemolytic activity in rabbit red blood cells assessed as hemoglobin release. The format is ADME, cell-based, Oryctolagus cuniculus, Erythrocyte.
For data set [9], the target named is T1, trypsin. The data set can be described thus: Stability of the compound assessed as trypsin (unknown origin)-mediated degradation using pH 7.4 PBS buffer measured for 60 mins by HPLC analysis. The following applies: trypsin in PBS buffer, read-out: Drug degradation. The format is ADME, protein assay.

Broadly, the half-life is the time needed for the level to fall by half in the phase considered. What is called IC50 is the concentration that gives 50% inhibition. As a reminder, the HC50 is the concentration that lyses half of the red blood cells. As to `CC(C)C[C@H](NC(=O)[C@H](CC(C)C)NC(=O)[C@H](CC(=O)O)NC(=O)[C@H](CCCCN)NC(=O)[C@H](Cc1ccccc1)NC(=O)CN)C(=O)N[C@@H](CCCCN)C(=O)NCC(=O)N[C@@H](C)C(=O)N[C@@H](C)C(=O)N[C@@H](CCCCN)C(=O)N[C@@]1(C)CCC/C=C\CCC[C@@](C)(C(=O)N[C@H](C(=O)N[C@@H](CC(C)C)C(=O)N[C@@H](Cc2ccccc2)C(N)=O)C(C)C)NC(=O)[C@H](CCCCN)NC(=O)[C@H](C(C)C)NC(=O)[C@H](CC(C)C)NC1=O` (H-GFKDLLKGAAK[S5]LVK[S5]VLF-NH2; staple (Z) 12-16), the Activity in [1] is 51%; in data set [7], “Dose-Dependent Effect”. Besides, in data set [2], the half-life came out at 36 min. The figures for the IC50 in [3], in data set [4] and in data set [5] were 2.39 µM, 7.17 µM and 16.4 µM, respectively. Further, the inhibition entry in [6] is “Dose-Dependent Effect”. Moreover, in [8], the HC50 is 40.6 µM.
H-GFKDLLKGAAKALVKTVLF-NH2 [Ascaphin-8]: the Activity in data set [1] is on record as 47%. Also, the metabolised at 1 h in data set [9] stood at 100%. Also, the half-life in data set [2] was 14 min. Further, the results for the IC50 in data set [3], in [4] and in data set [5] were 33.8 µM, 42.9 µM and 53.7 µM, respectively. Moreover, the HC50 in data set [8] was more than 100 µM.
As to `CC(C)C[C@H](NC(=O)[C@H](C)NC(=O)[C@H](CCCCN)NC(=O)[C@H](C)NC(=O)[C@H](C)NC(=O)[C@]1(C)CCC/C=C\CCC[C@](C)(NC(=O)[C@H](CCCCN)NC(=O)[C@H](Cc2ccccc2)NC(=O)CN)C(=O)N[C@@H](CC(C)C)C(=O)N[C@@H](CC(C)C)C(=O)N[C@@H](CCCCN)C(=O)N1)C(=O)N[C@H](C(=O)N[C@@H](CCCCN)C(=O)N[C@H](C(=O)N[C@H](C(=O)N[C@@H](CC(C)C)C(=O)N[C@@H](Cc1ccccc1)C(N)=O)C(C)C)[C@@H](C)O)C(C)C` (H-GFK[S5]LLK[S5]AAKALVKTVLF-NH2; staple (Z) 4-8), the Activity in data set [1] was 42%. Further, the half-inhibitory concentration (IC50) was 4.1 µM in data set [3], 11.1 µM in data set [4] and 33.9 µM in data set [5]. For the same molecule, the 50% haemolytic concentration (HC50) in [8] was 79.9 µM.
In the case of `CC(C)C[C@@H]1NC(=O)[C@H](C)NC(=O)[C@H](CCCCN)NC(=O)[C@H](C)NC(=O)[C@@](C)(NC(=O)CNC(=O)[C@H](CCCCN)NC(=O)[C@H](CC(C)C)NC(=O)[C@H](CC(C)C)NC(=O)[C@H](CC(=O)O)NC(=O)[C@H](CCCCN)NC(=O)[C@H](Cc2ccccc2)NC(=O)CN)CCCCCC/C=C/CCC[C@@](C)(C(=O)N[C@H](C(=O)N[C@@H](CC(C)C)C(=O)N[C@@H](Cc2ccccc2)C(N)=O)C(C)C)NC(=O)[C@H](CCCCN)NC(=O)[C@H](C(C)C)NC1=O` (H-GFKDLLKG[S8]AKALVK[S5]VLF-NH2; staple (E) 9-16), the Activity in data set [1] is 80%. Moreover, the IC50 came out at 11.7 µM in [3], 17.3 µM in data set [4] and 44.3 µM in data set [5]. In data set [8], the concentration for 50% haemolysis (HC50) is 90.5 µM.
In data set [1], `CC(C)C[C@H](NC(=O)[C@H](CC(=O)O)NC(=O)[C@H](CCCCN)NC(=O)[C@H](Cc1ccccc1)NC(=O)CN)C(=O)N[C@@H](CC(C)C)C(=O)N[C@@H](CCCCN)C(=O)N[C@@]1(C)CCC/C=C\CCC[C@@](C)(C(=O)N[C@@H](CC(C)C)C(=O)N[C@H](C(=O)N[C@@H](CCCCN)C(=O)N[C@H](C(=O)N[C@H](C(=O)N[C@@H](CC(C)C)C(=O)N[C@@H](Cc2ccccc2)C(N)=O)C(C)C)[C@@H](C)O)C(C)C)NC(=O)[C@H](CCCCN)NC(=O)[C@H](C)NC(=O)[C@H](C)NC1=O` (H-GFKDLLK[S5]AAK[S5]LVKTVLF-NH2; staple (Z) 8-12) gave an Activity of 48%. Moreover, the results for the half-maximal inhibitory concentration (IC50) in data set [3], in [4] and in [5] were 2.57 µM, 7.88 µM and 19.7 µM, respectively. In addition, the HC50 in data set [8] was determined as 40.2 µM.
